Test results reported in patent US12552829B2, “Compositions and methods for treating CNS disorders” (SAGE THERAPEUTICS, INC., priority 2019, dated 2026).

Molecular target: [35S]-TBPS binding, rat brain cortical membranes (GABAA receptor)
Assay: Steroid inhibition of [35S]-TBPS binding
Settings: 3 nM [35S]-TBPS, in the presence of 5 mM GABA, 90 min at room temp
Method: [^35S]-t-Butylbicyclophosphorothionate (TBPS) binding assays using rat brain cortical membranes in the presence of 5 mM GABA has been described (Gee et al, J. Pharmacol. Exp. Ther. 1987, 241, 346-353; Hawkinson et al, Mol. Pharmacol. 1994, 46, 977-985; Lewin, A. H et al., Mol. Pharmacol. 1989, 35, 189-194).
Briefly, cortices are rapidly removed following decapitation of carbon dioxide-anesthetized Sprague-Dawley rats (200-250 g). The cortices are homogenized in 10 volumes of ice-cold 0.32 M sucrose using a glass/teflon homogenizer and centrifuged at 1500×g for 10 min at 4° C. The resultant supernatants are centrifuged at 10,000×g for 20 min at 4° C. to obtain the P2 pellets. The P2 pellets are resuspended in 200 mM NaCl/50 mM Na-K phosphate pH 7.4 buffer and centrifuged at 10,000×g for 10 min at 4° C. This washing procedure is repeated twice and the pellets are resuspended in 10 volumes of buffer. Aliquots ([…]) of the membrane suspensions are incubated with 3 nM [^35S]-TBPS and […] aliquots of test drug dissolved in dimethyl sulfoxide (DMSO) (final 0.5%) in the presence of 5 mM GABA. The incubation is brought to a final volume of 1.0 mL with buffer. Nonspecific binding is determined in the presence of […] and ranged from 15 to 25%. Following a 90 min incubation at room temp, the assays are terminated by filtration through glass fiber filters (Schleicher and Schuell No. 32) using a cell harvester (Brandel) and rinsed three times with ice-cold buffer. Filter bound radioactivity is measured by liquid scintillation spectrometry. Non-linear curve fitting of the overall data for each drug averaged for each concentration is done using Prism (GraphPad). […] The concentration of test compound producing 50% inhibition (IC50) of specific binding and the maximal extent of inhibition (Imax) are determined for the individual experiments with the same model used for the overall data and then the means±SEM.s of the individual experiments are calculated.
Various compounds are or can be screened to determine their potential as modulators of [^35S]-TBPS binding in vitro. These assays are or can be performed in accordance with the above.

Row | SMILES | IC50
1 | COC[C@@]1(O)CC[C@H]2[C@H](CC[C@@H]3[C@@H]2CC[C@@]2(C)[C@H]3[C@H](C)CC[C@@H]2[C@@](C)(O)Cn2cc(C#N)cn2)C1 (single isomer, unassigned) [Example 32] | < 100 nM
2 | CCC[C@@]1(O)CC[C@H]2[C@H](CC[C@@H]3[C@@H]2CC[C@@]2(C)[C@H]3[C@H](C)CC[C@@H]2[C@@](C)(O)Cn2cc(C#N)cn2)C1 (single isomer, unassigned) [Example 34] | < 100 nM
3 | CCC[C@@]1(O)CC[C@H]2[C@@H](CC[C@@H]3[C@@H]2CC[C@@]2(C)[C@H]3CCC[C@@H]2[C@](C)(O)Cn2cc(C#N)cn2)C1 [Example 1, 1-((S)-2-hydroxy-2-((1S,4aS,4bR,6aS,8R,10aS,10bR,12aS)-8-hydroxy-12a-methyl-8-propyloctadecahydrochrysen-1-yl)propyl)-1H-pyrazole-4-carbonitrile] | 100 to 1000 nM
4 | CCC[C@@]1(O)CC[C@H]2[C@@H](CC[C@@H]3[C@@H]2CC[C@@]2(C)[C@H]3CCC[C@@H]2[C@@](C)(O)Cn2cc(C#N)cn2)C1 [Example 2, 1-((R)-2-hydroxy-2-((1S,4aS,4bR,6aS,8R,10aS,10bR,12aS)-8-hydroxy-12a-methyl-8-propyloctadecahydrochrysen-1-yl)propyl)-1H-pyrazole-4-carbonitrile] | 100 to 1000 nM
5 | CC[C@@]1(O)CC[C@H]2[C@H](CC[C@@H]3[C@@H]2CC[C@@]2(C)[C@H]3CCC[C@@H]2[C@](C)(O)Cn2cc(C#N)cn2)C1 [Example 7, 1-((S)-2-((1S,4aS,4bR,6aR,8R,10aS,10bR,12aS)-8-ethyl-8-hydroxy-12a-methyloctadecahydrochrysen-1-yl)-2-hydroxypropyl)-1H-pyrazole-4-carbonitrile] | 100 to 1000 nM
6 | CCC[C@@]1(O)CC[C@H]2[C@H](CC[C@@H]3[C@@H]2CC[C@@]2(C)[C@H]3CCC[C@@H]2[C@](C)(O)Cn2cc(C#N)cn2)C1 [Example 9, 1-((S)-2-hydroxy-2-((1S,4aS,4bR,6aR,8R,10aS,10bR,12aS)-8-hydroxy-12a-methyl-8-propyloctadecahydrochrysen-1-yl)propyl)-1H-pyrazole-4-carbonitrile] | < 100 nM
7 | CC[C@@]1(O)CC[C@H]2[C@@H](CC[C@@H]3[C@@H]2CC[C@@]2(C)[C@H]3CCC[C@@H]2[C@@](C)(O)Cn2cc(C#N)cn2)C1 [Example 11, 1-((R)-2-((1S,4aS,4bR,6aS,8R,10aS,10bR,12aS)-8-ethyl-8-hydroxy-12a-methyloctadecahydrochrysen-1-yl)-2-hydroxypropyl)-1H-pyrazole-4-carbonitrile] | 100 to 1000 nM
8 | C[C@@]1(O)CC[C@@]2(C)[C@H](CC[C@@H]3[C@@H]2CC[C@@]2(C)[C@H]3CCC[C@@H]2[C@@](C)(O)Cn2cc(C#N)cn2)C1 [Example 15, 1-((R)-2-hydroxy-2-((1S,4aS,4bR,6aR,8R,10aS,10bS,12aS)-8-hydroxy-8,10a,12a-trimethyloctadecahydrochrysen-1-yl)propyl)-1H-pyrazole-4-carbonitrile] | 100 to 1000 nM
9 | CCC[C@@]1(O)CC[C@@]2(C)[C@@H](CC[C@@H]3[C@@H]2CC[C@@]2(C)[C@H]3CCC[C@@H]2[C@@](C)(O)Cn2cc(C#N)cn2)C1 [Example 17, 1-((R)-2-hydroxy-2-((1S,4aS,4bR,6aS,8R,10aS,10bS,12aS)-8-hydroxy-10a,12a-dimethyl-8-propyloctadecahydrochrysen-1-yl)propyl)-1H-pyrazole-4-carbonitrile] | ≥ 1000 nM
10 | C[C@]1(O)CCC2=CC[C@H]3[C@@H]4CC[C@H]([C@](C)(O)Cn5cc(C#N)cn5)[C@@]4(C)CC[C@@H]3[C@@]2(C)CC1 [Example 18, 1-((S)-2-hydroxy-2-((1S,3aS,3bS,8S,10aR,10bS,12aS)-8-hydroxy-8,10a,12a-trimethyl-1,2,3,3a,3b,4,6,7,8,9,10,10a,10b,11,12,12a-hexadecahydrocyclohepta[a]cyclopenta[f]naphthalen-1-yl)propyl)-1H-pyrazole-4-carbonitrile] | 100 to 1000 nM
11 | C[C@]1(O)CCC2=CC[C@H]3[C@@H]4CC[C@H]([C@@](C)(O)Cn5cc(C#N)cn5)[C@@]4(C)CC[C@@H]3[C@@]2(C)CC1 [Example 19, 1-((R)-2-hydroxy-2-((1S,3aS,3bS,8S,10aR,10bS,12aS)-8-hydroxy-8,10a,12a-trimethyl-1,2,3,3a,3b,4,6,7,8,9,10,10a,10b,11,12,12a-hexadecahydrocyclohepta[a]cyclopenta[f]naphthalen-1-yl)propyl)-1H-pyrazole-4-carbonitrile] | < 100 nM
12 | C[C@@]1(O)CCC[C@H]2[C@H](CC[C@@H]3[C@@H]2CC[C@@]2(C)[C@H]3CC[C@@H]2[C@](C)(O)Cn2cc(C#N)cn2)C1 [Example 20, 1-((S)-2-hydroxy-2-((1S,3aS,3bR,5aR,7R,10aS,10bR,12aS)-7-hydroxy-7,12a-dimethyloctadecahydrocyclohepta[a]cyclopenta[f]naphthalen-1-yl)propyl)-1H-pyrazole-4-carbonitrile] | < 100 nM
13 | C[C@@]1(O)CCC[C@H]2[C@H](CC[C@@H]3[C@@H]2CC[C@@]2(C)[C@H]3CC[C@@H]2[C@@](C)(O)Cn2cc(C#N)cn2)C1 [Example 21, 1-((R)-2-hydroxy-2-((1S,3aS,3bR,5aR,7R,10aS,10bR,12aS)-7-hydroxy-7,12a-dimethyloctadecahydrocyclohepta[a]cyclopenta[f]naphthalen-1-yl)propyl)-1H-pyrazole-4-carbonitrile] | 100 to 1000 nM
14 | C[C@]1(O)CC[C@@H]2CC[C@@H]3[C@H](CC[C@@]4(C)[C@H]3CC[C@@H]4[C@@](C)(O)Cn3cc(C#N)cn3)[C@@]2(C)CC1 [Example 23, 1-((R)-2-hydroxy-2-((1S,3aS,3bR,5aS,8S,10aS,10bS,12aS)-8-hydroxy-8,10a,12a-trimethyloctadecahydrocyclohepta[a]cyclopenta[f]naphthalen-1-yl)propyl)-1H-pyrazole-4-carbonitrile] | 100 to 1000 nM
15 | C[C@@H]1CC[C@H]([C@@](C)(O)Cn2cc(C#N)cn2)[C@@]2(C)CC[C@H]3[C@@H](CC[C@@H]4C[C@](C)(O)CC[C@@H]43)[C@H]12 [Example 24, 1-((R)-2-hydroxy-2-((1S,4R,4aS,4bR,6aR,8R,10aS,10bR,12aS)-8-hydroxy-4,8,12a-trimethyloctadecahydrochrysen-1-yl)propyl)-1H-pyrazole-4-carbonitrile] | < 100 nM
16 | C[C@@H]1CC[C@H]([C@](C)(O)Cn2cc(C#N)cn2)[C@@]2(C)CC[C@H]3[C@@H](CC[C@@H]4C[C@](C)(O)CC[C@@H]43)[C@H]12 [Example 25, 1-((S)-2-hydroxy-2-((1S,4R,4aS,4bR,6aR,8R,10aS,10bR,12aS)-8-hydroxy-4,8,12a-trimethyloctadecahydrochrysen-1-yl)propyl)-1H-pyrazole-4-carbonitrile] | < 100 nM
17 | C[C@H]1[C@H]2[C@@H]3CC[C@@H]4C[C@](C)(O)CC[C@@H]4[C@H]3CC[C@]2(C)[C@@H]([C@](C)(O)Cn2cc(C#N)cn2)C[C@@H]1C [Example 26, 1-((S)-2-hydroxy-2-((1S,3S,4R,4aS,4bR,6aR,8R,10aS,10bR,12aS)-8-hydroxy-3,4,8,12a-tetramethyloctadecahydrochrysen-1-yl)propyl)-1H-pyrazole-4-carbonitrile] | < 100 nM
18 | C[C@H]1[C@H]2[C@@H]3CC[C@@H]4C[C@](C)(O)CC[C@@H]4[C@H]3CC[C@]2(C)[C@@H]([C@@](C)(O)Cn2cc(C#N)cn2)C[C@@H]1C [Example 27, 1-((R)-2-hydroxy-2-((1S,3S,4R,4aS,4bR,6aR,8R,10aS,10bR,12aS)-8-hydroxy-3,4,8,12a-tetramethyloctadecahydrochrysen-1-yl)propyl)-1H-pyrazole-4-carbonitrile] | < 100 nM
